Measurements as given in US5380715A, “Ap4 A as a hypotensive agent” (Fujirebio Inc., priority 1992, dated 1995).
Entries after “also recorded” stand apart in the source; their conditions may differ.

Columns and labels:
[1] = tested on: rabbit platelet aggregation; assay: Platelet aggregate dispersing effect; format: cell-based; conditions: ADP- and PAF-induced; result in words (FIG. 5)
Method: Fresh blood samples were collected from male Japanese white rabbits weighing 2-3 kg. Blood was anticoagulated with citric acid (1 ml 3.8% citric acid solution +9 ml blood). These samples were centrifuged at room temperature for 20 min at 200×g to obtained platelet-rich plasma (PRP). Furthermore, the supernatant liquid was centrifuged for 10 min at 1500×g to obtained platelet-poor plasma (PPP). Aggregation of platelests was measured photometrically in a Nihon Kohden hema tracer equipped with a mechanical stirring device and with a chart record. At this time, the chart recorder was calibrated as follows: the light transmission obtained with PPP was set as 100% transmission and the optical density of PRP was taken as 0% transmission. Maximal aggregation, i.e. the maximal change in optical density of the primary wave calculated in percent light transmission. From the study, it was determined that ADP, Ap3A, PAF(platelet activating factor) and collagen induced maximal aggregations at a concentration of 1×10^-5 M, 1×10^-4 M, 1.9×10^-7 M and 5 μg/kg, respectively. In the following studies, these aggregating agents were used at maximal dose. The effect of Ap4A on platelet aggregation by ADP and Ap3A were tested. In this time, Ap4A was pretreated for 1 or 10 min before the addition of aggregating agents. […]

rats = assay: Recovery of blood pressure after gradual hypotension in rats; format: in vivo, male SD rats; conditions: rat
Method: FIG. 1 is a graph showing the recovery of the blood pressure of rats anesthetized with enflurane with time, when each of Ap4A ( ), PG E1 ( ) and nitroglycerin ( ) was used as a test drug to attain gradual hypotension, with the blood pressure before the administration of each test drug being set 100% for reference.
The recovery of blood pressure after gradual hypotension by use of each of Ap4A, PG E1 and nitroglycerin was also tested.
The control values were obtained before the administration of each test drug. Each test drug was then administered using a syringe in a dose-dependent manner for 15 minutes. The percentage (%) of the decrease of blood pressure was determined when stabilized. Changes in heart rate (H.R.) at the administration of each test drug were measured. Furthermore,the recovery of mean blood pressure after intravenous infusion of each test drug was also determined from the decrease in heart rate and the blood pressure at a maximum dose of each test drug.
In a test similar to the above, each of Ap4A, PG E1, and nitroglycerin was administered to rats, so that about 65% fall in blood pressure, about 55% fall in blood pressure, and about 35% fall in blood pressure were stepwise attained. With respect to each agent, the recovery of blood pressure was tested.

SMILES: Nc1ncnc2c1ncn2[C@@H]1O[C@H](COP(=O)(O)OP(=O)(O)OP(=O)(O)OP(=O)(O)OC[C@H]2O[C@@H](n3cnc4c(N)ncnc43)[C@H](O)[C@@H]2O)[C@@H](O)[C@H]1O [Ap4A, diadenosine 5',5'"-p^1,p^4 -tetraphosphate]
- platelet aggregate dispersing effect [1]: Both ADP- and PAF-induced platelet aggregations were dispersed; also recorded: dispersing aggregated lumps formed by PAF (platelet activating factor) and ADP
- recovered blood pressure (before administration = 100%) (rats; 1 minute): about 70%
- recovered blood pressure (before administration = 100%) (rats; 5 minutes): about 90%
- recovered blood pressure (before administration = 100%) (rats; 10 minutes): 100%
- fall in blood pressure attained before recovery (rats; stepwise): about 65%
- rapidness of the recovery of blood pressure (rats; order in words): Ap4A>PG E1 >nitroglycerin
- rebound hypertension (rats; result in words): without rebound hypertension
